Source: patent publication US9567318B2, “Substituted pyrimidine compounds and uses thereof” (Memorial Sloan-Kettering Cancer Center, priority 2009, dated 2017)

Experiments:
[1] = tested on: Hsp70s expressed in the MRC-5 cells; test: Hsp70 competition assay using YK55 beads, MRC-5 extracts; assay type: binding, human; conditions: MRC-5 normal cell extracts
Procedure: FIG. 14. YK5 has a higher affinity for tumor Hsp70s and selectively kills cancer cells. (a-c) Cells were treated with the indicated concentrations of inhibitors for the times presented, and metabolically viable cells by Alamar blue uptake as described in Methods (a). Molecular markers of apoptosis (PARP and caspase-3 cleavage) were analyzed in cells treated for 24 h with indicated concentrations of inhibitors, by western blotting (b, c). Morphology of cells treated for 24 h with vehicle or the indicated inhibitors was analyzed by light microscopy (c). (d) Extracts (500 μg) were incubated overnight with beads containing D-biotin (75 μM) or the indicated concentrations of YK55 added to 50 μl streptavidin beads. HS=heat shocked. (e) SKBr3 (200 μg) and MRC-5 (400 μg) extracts and recombinant human Hsp70 (2 μg) were incubated for 3 h with the indicated concentrations with YK5, followed by precipitation of Hsp70 complexes on YK55-beads (50 μM YK55 added to 50 μl streptavidin beads). Data obtained from three independent experiments were graphed (right). Points, mean; bars, s.d.
In a second experiment, the ability of soluble YK5 to compete YK55-binding to normal and cancer cell Hsp70 species were tested (FIG. 14e). […] Interaction of YK5 was even weaker with recombinant human Hsp70 (FIG. 14e).
Hsp70 Competition Assay Using the YK55 Beads. […]

[2] = tested on: primary human AML cells (blasts, leukemia stem cells); test: Treatment of primary AML cells; assay type: cell-based; conditions: 24 h
Procedure: FIG. 20. Treatment of primary AML cells with YK5. YK5 kills both blast and cancer stem cells but not normal cells. Cells were treated with increasing concentrations of YK5 for 24 h. (a-b) % viability relative to untreated control is shown. Open bars: “Other” represent normal cells in the same patient (non-blast), Gray bars: Blasts (CD45 dim). red bars: leukemia stem cells (LSCs) (CD34+CD38-CD123+). (c) CFU (Colony forming units) decrease after treatment of primary AML cells with YK5. **p<0.001.
Strikingly, a high sensitivity of phenotypically described leukemia stem cells and of total leukemic blasts was observed (FIG. 20b; red vs. gray bars). […] Thus, a compound with cancer stem cell toxicity, such as YKs, is of significant value to improving cancer therapy.
Primary Cell Isolation and Culture. Primary human AML cells were obtained with informed consent. All manipulation and analysis of specimens was approved by the Weill Cornell Medical College Institutional Review Board. Mononuclear cells were isolated using Ficoll-Plaque (Pharmacia Biotech, Piscataway, N.Y.) density gradient separation. In some cases, cells were cryopreserved in freezing medium consisting of Iscove's modified Dulbecco medium (IMDM), 40% fetal bovine serum (FBS), and 10% dimethylsulfoxide (DMSO) or in CryoStor™ CS-10 (Biolife).

[3] = tested on: infiltrating ductal carcinoma tissue; test: Ex vivo treatment of fresh breast tumor tissue; set-up: species or system human; conditions: 5 μM, 24 h post addition
[4] = tested on: PBLs, CCD18Co and MRC-5 normal cells; test: Cytotoxicity in normal cells; assay type: cell-based
Procedure: FIG. 14. YK5 has a higher affinity for tumor Hsp70s and selectively kills cancer cells. (a-c) Cells were treated with the indicated concentrations of inhibitors for the times presented, and metabolically viable cells by Alamar blue uptake as described in Methods (a). Molecular markers of apoptosis (PARP and caspase-3 cleavage) were analyzed in cells treated for 24 h with indicated concentrations of inhibitors, by western blotting (b, c). Morphology of cells treated for 24 h with vehicle or the indicated inhibitors was analyzed by light microscopy (c). […]
Because Hsp70 assists in house-keeping functions of normal cells, such as folding of newly synthesized polypeptides, refolding of misfolded proteins, and translocation of proteins through biological membranes, it remains unclear whether pharmacologic interventions which target both Hsp70 and Hsc70 isoforms, such as YK5, are non-toxic to these cells. To address this matter, the cytotoxic effect of YK5 in a panel of normal cells was evaluated, namely peripheral blood leukocytes (PBLs) obtained from healthy blood donors, and cultured normal fibroblasts, such as the colon cells CCD18Co and the lung MRC-5 (FIG. 14a-c). […]
Growth Inhibition Assay. Antiproliferative effects of inhibitors were evaluated using the dye Alamar blue. […]

Which results are given for `C=CC(=O)Nc1cc(N)nc(Sc2c(OC)nc(N3CCN(C)CC3)nc2OC)n1` [YK5, N-(6-amino-2-(4,6-dimethoxy-2-(4-methylpiperazin-1-yl)pyrimidin-5-ylthio)pyrimidin-4-yl)acrylamide]?
concentration necessary to observe displacement of Hsp70s from YK55-beads [1]: exceeded 200 μM; cell death in primary AML specimens [2]: induced potent cell death in blast, stem and progenitor populations; tumor cells dead or dying [3]: 60%; cell death in normal cells [4]: minimal
